Reference: patent publication US20050209157A1, “Short bioactive peptides and methods for their use” (priority 2001, published 2005)
No end group written: not given here.

Key:
S. epidermidis C621 = format: cell-based, Staphylococcus epidermidis; details: Table 15
S. aureus (MRSA) = format: cell-based, Staphylococcus aureus; details: Table 15, strain SAP0017; in µg/mL
E. coli UB1005 = format: cell-based, Escherichia coli; details: Table 14
[1] = tested on: Pseudomonas aeruginosa H187; format: cell-based; details: Table 15; in µg/mL
P. aeruginosa H374 = format: cell-based, Pseudomonas aeruginosa; details: Table 14; in µg/mL
Candida albicans 105 = format: cell-based; details: Table 15; in µg/mL
S. typhimurium 14028S = format: cell-based, Salmonella typhimurium; details: Table 14
WI38 = details: MTT, 24 hours with peptide
[2] = tested on: Staphylococcus aureus ATCC 6538; experiment: Antimicrobial assay I, MIC by OD measurement; format: cell-based; details: 37° C. for 24 hours, absorbance 620 nm
[3] = tested on: Pseudomonas aeruginosa ATCC 9027; experiment: Antimicrobial assay I, MIC by OD measurement; format: cell-based; details: 37° C. for 24 hours, absorbance 620 nm
[4] = tested on: human leukocyte (WBC) cells; experiment: Stimulation and proliferation of leukocytes, Alamar Blue; format: cell-based; details: for Peptide treated cell activity Percent stimulation relative to control: 48 hours
Protocol: In vitro viability of human leukocyte cells in the presence of different peptides at different concentrations was determined by an Alamar Blue protocol. Alamar Blue (Promega, Madison, Wis.) is an indicator dye, formulated to measure quantitatively the proliferation and cytotoxicity of the cells. The dye consists of an oxidation-reduction (redox) indicator that yields a calorimetric change and a fluorescent signal in response to cellular metabolic activity.
Assay protocol: Blood from a human was drawn and centrifuged at 1500 rpm for 15 minutes at room temperature. The buffy coat cells at the plasma-red blood cell interface were aspirated. Buffy coat cells (mainly lymphocyte cells) were then transferred into 15 ml centrifuge tubes containing 5 ml of RPMI-1640 medium+10% Fetal Bovine Serum (Gibco, Grand Island, N.Y.). Additional medium was added to the tubes to bring the volume up to 10 ml. The buffy coat suspension was then carefully layered on 5 ml of Histopaque (Sigma Chemical Co., St. Louis, Mo.) and centrifuged at 1500 rpm for 30 minutes at room temperature. The interface which is mostly PBMCs (peripheral mononuclear cells) was aspirated and transferred to a 15 ml conical centrifuge tube and, resuspended in 2 ml cold RPMI-1640 and brought up to 15 ml with cold RPMI-1640 medium. Cells were centrifuged at 1500 rpm for 10 minutes. The supernatant was then aspirated and discarded. The cell pellet was re-suspended in 1 ml of cold RPMI 1640 and brought up to 15 ml with RPMI medium. This step was repeated twice, except that in the last step, the cells were resuspended with 1 ml of cold RPMI-1640 medium and cell counts were performed with a hemocytometer according to the Sigma cell culture catalogue.
Pokewood mitogen was used as a control along with positive and negative controls. Negative control cells were killed with 70% methanol. Positive (+) control cells were incubated in RPMI medium (untreated). […] of AlamarBlue was added to the cells, and readings were taken after 24 hours, 48 hours, 72 hours, and 96 hours using a fluorimeter (excitation 544/transmission 590 nm).
Calculations were performed using the following formula. The peptide treated sample and positive control were adjusted for negative control. [formula]
Using the protocol described immediately above, about 100-150 peptides were screened for their stimulatory and/or inhibitory actions upon the growth of human leukocyte (“WBC”) cells as compared to the growth of untreated positive control cells.
The Alamar Blue stain used in the protocol permeates both cell and nuclear membranes, and is metabolized in the mitochondria to cause the change in color. The resulting fluorometric response is therefore a result of total mitochondrial activity caused by cell stimulation and/or mitosis (cell proliferation).

[5] = tested on: human red blood cells (RBC); experiment: in vitro; format: cell-based; details: for Peptide toxicity RBC LD/50: human red blood cells
MCF7 = experiment: Anti-cancer assay, MTT, LD50; format: cell-based; details: MCF7 breast adenocarcinoma line, MTT, 24 hours with peptide
Description: (§1) Numbers are LD50 values (μg/mL).

H1299 = experiment: Anti-cancer assay, MTT, LD50; format: cell-based; details: 24 hours with peptide, lung large cell carcinoma
Description: as §1

BMKC = experiment: Anti-cancer assay, MTT, LD50; format: cell-based; details: BMKC cloned melanoma line, 24 hours with peptide
Description: as §1

HeLaS3 = experiment: Anti-cancer assay, MTT, LD50; format: cell-based; details: 24 hours with peptide, cervical carcinoma
Description: as §1

SW480 = experiment: Anti-cancer assay, MTT, LD50; format: cell-based; details: SW480 colon adenocarcinoma line, 24 hours with peptide
Description: as §1

PC3 = experiment: Anti-cancer assay, MTT, LD50; format: cell-based; details: 24 hours with peptide, prostate adenocarcinoma
Description: as §1

[6] = tested on: yeast (Saccharomyces cerevisiae); experiment: Antimicrobial assay I, yeast assay in RPMI 1640; format: cell-based; details: RPMI 1640 media
in vitro = details: human, WI38 normal lung fibroblast cells, Peptide toxicity WI-38 LD/50, human fibroblast cells

Substance | MIC S. epidermidis C621 (S. epidermidis C621) | MIC S. aureus SAP0017 (S. aureus (MRSA)) | MIC E. coli UB1005 (E. coli UB1005) | MIC P. aeruginosa H187 [1] | MIC P. aeruginosa H374 (P. aeruginosa H374) | MIC C. albicans 105 (Candida albicans 105) | MIC S. typhimurium 14028S (S. typhimurium 14028S) | Peptide treated cell activity Percent stimulation relative to control ([4]; 0.1 ug/ml) | Peptide treated cell activity Percent stimulation relative to control ([4]; 1 ug/ml) | Peptide treated cell activity Percent stimulation relative to control ([4]; 10 ug/ml) | Peptide treated cell activity Percent stimulation relative to control ([4]; 100 ug/ml) | Peptide treated cell activity Percent stimulation relative to control ([4]; 500 ug/ml) | Peptide toxicity RBC LD/50 [5] | CC50 at 24 h (in vitro) | further results
KFKKLAKKW-NH2 [P175 (136)] | > 128 µg/mL | >128 | > 128 µg/mL | >128 | >128 | >128 | > 128 µg/mL | – | – | – | – | – | – | – | –
FALLKL-NH2 [P168 (129)] | 128 µg/mL | >128 | 128 µg/mL | 128 | 128 | 128 | > 128 µg/mL | – | – | – | – | – | – | – | –
KFKKLAKKF-NH2 [P174 (135)] | > 128 µg/mL | >128 | > 128 µg/mL | >128 | >128 | >128 | > 128 µg/mL | – | – | – | – | – | – | – | –
FKRLAKIKVLRLAKIKR-NH2 [P147 (109)] | 64 µg/mL | >128 | 64 µg/mL | >128 | 128 | 64 | 128 µg/mL | – | – | – | – | – | – | – | –
FAKLLAKKLL-NH2 [P57 (37)] | > 128 µg/mL | >128 | > 128 µg/mL | >128 | >128 | 128 | > 128 µg/mL | – | – | – | – | – | – | – | –
FALALKAKKL-NH2 [P182] | – | – | – | – | – | – | – | – | – | – | – | – | – | – | WI38 LD50 (WI38; normal fibroblast line): > (> indicates greater than 1000); LD50 WI38 (WI38; WI38 normal lung fibroblast line): > (> indicates greater than 1000); staph6538 (MIC) [2]: > (> indicates greater than 200 μg/mL); paerug9027 (MIC) [3]: > (> indicates greater than 200 μg/mL); stimulatory and/or inhibitory action on growth of human leukocyte (WBC) cells ([4]; compared to untreated positive control cells, Alamar Blue): stimulatory (and/or proliferative) at all concentrations through 500 μg/ml; LD50 ([5]; hemolytic assay, concentration at 50% hemolysis, 1 hour at 37° C.): > (> indicates greater than 1000); LD50 MCF7 (MCF7): > (> indicates greater than 1000); H1299 LD50 (H1299): > (> indicates greater than 1000); LD50 BMKC (BMKC): > (> indicates greater than 1000); HeLaS3 LD50 (HeLaS3): > (> indicates greater than 1000); LD50 SW480 (SW480): > (> indicates greater than 1000); PC3 LD50 (PC3): > (> indicates greater than 1000); yeast (MIC or MFC) [6]: > (> indicates greater than 200 μg/mL)
MPKEKVFLKIEKMGRNIRN-NH2 [compound 71] | – | – | – | – | – | – | – | 101% | 100% | 108% | 109% | 110% | >1000 | > 1000 µg/mL | –
FAKALAKLAKKLL-NH2 [compound 58] | – | – | – | – | – | – | – | 112% | 112% | 98% | 35% | 26% | 300 | 25 µg/mL | –
FALKALKKLKKALKKAL-NH2 [compound 115] | – | – | – | – | – | – | – | 93% | 92% | 37% | 72% | 29% | 780 | 130 µg/mL | –
FAVGLRAIKRALKKLRRGVRKVAKDL-NH2 [compound 119] | – | – | – | – | – | – | – | 88% | 108% | 54% | 117% | 89% | 850 | 500 µg/mL | –
LPKWKVFKKIEKVGRNIRNGIVKAGPAIAVLGEAKALG-NH2 [compound 150] | – | – | – | – | – | – | – | 97% | 101% | 94% | 109% | 112% | >1000 | 320 µg/mL | –
FALALKALKKLAKKLKKLAKKAL-NH2 [compound 10] | – | – | – | – | – | – | – | 117% | 104% | 99% | 27% | 27% | 60 | 24 µg/mL | –
FAKKLAKLAKKLLAL-NH2 [compound 20] | – | – | – | – | – | – | – | 79% | 82% | 78% | 37% | 36% | 350 | 12 µg/mL | –
